Experimental data taken from patent US20250296938A1, “Compounds that Interact with the Ras Superfamily for the Treatment of Cancers, Inflammatory Diseases, Rasopathies, and Fibrotic Disease” (SHY Therapeutics, LLC, priority 2018, published 2025).
Where two headings read alike, the source gives them in different places.

Key:
Assay in all cases: Ras GTP binding domain inhibition assay (Cy3-GTP/Cy5-GTP competition)
KRas G12D mutant = target: T1, KRas G12D mutant (Homo sapiens, UniProt P01116, G12D); settings: 20 μM
T1 construct: fused on or other part: His tag, used for capture on nickel-coated plates
Summary of the method: (§1)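 Ni-plate immobilised His-Ras, overnight 4 °C; cpd 20 μM (or dilution series for IC50), 1% DMSO, 3 h RT; optional His-Sos […] last hour; Cy3- or Cy5-GTP 100 nM, 45 min RT; 3× wash; bound fluorescence read.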

KRas G12C mutant = system: KRas G12C mutant; parameters: species or system human; settings: 20 μM
Summary of the method: as §1

KRas Q61H mutant = system: KRas Q61H mutant; parameters: species or system human; settings: 20 μM
Summary of the method: as §1

KRas wild type = system: KRas wild type; parameters: species or system human; settings: 20 μM; for KRas wild type % inh.: without SOS (Table 7A); for KRas wild type: % inh.: without SOS
Summary of the method: as §1

[1] = with SOS (Table 7A), read-out: KRas G12D mutant + SOS: % inh.
[2] = without SOS (Table 7A), read-out: KRas G12D mutant: % inh.
[3] = with SOS, read-out: KRas G-12D mutant + SOS: % inh.
[4] = without SOS, read-out: KRas G12D mutant: % inh.

| inhibition at 20 µM (KRas G12D mutant; [1]) | inhibition at 20 µM (KRas G12D mutant; [2]) | KRas G12C mutant + SOS: % inh. (KRas G12C mutant; with SOS (Table 7A)) | KRas G12C mutant: % inh. (KRas G12C mutant; without SOS (Table 7A)) | KRas Q61H mutant + SOS: % inh. (KRas Q61H mutant; with SOS (Table 7A)) | KRas Q61H mutant: % inh. (KRas Q61H mutant; without SOS (Table 7A)) | KRas wild type + SOS: % inh. (KRas wild type; with SOS (Table 7A)) | KRas wild type % inh. (KRas wild type) | inhibition at 20 µM (KRas G12D mutant; [3]) | inhibition at 20 µM (KRas G12D mutant; [4]) | KRas G12C mutant + SOS: % inh. (KRas G12C mutant; with SOS) | KRas G12C mutant: % inh. (KRas G12C mutant; without SOS) | KRas Q61H mutant + SOS: % inh. (KRas Q61H mutant; with SOS) | KRas Q61H mutant: % inh. (KRas Q61H mutant; without SOS) | KRas wild type + SOS: % inh. (KRas wild type; with SOS) | KRas wild type: % inh. (KRas wild type) | SMILES |
| --- | --- | --- | --- | --- | --- | --- | --- | --- | --- | --- | --- | --- | --- | --- | --- | --- |
| 51 to 75% | 51 to 75% | C (51-75% inhibition) | C (51-75% inhibition) | C (51-75% inhibition) | C (51-75% inhibition) | C (51-75% inhibition) | C (51-75% inhibition) | – | – | – | – | – | – | – | – | COC1CCN(C(=O)c2sc3nc(-c4nccn4C)nc(N[C@H]4C[C@@H](OC)C4)c3c2-c2ccccc2)C1 (stereo partly shown) [drawing 923] |
| – | – | – | – | – | – | – | – | 26 to 50% | 26 to 50% | C (51-75% inhibition) | C (51-75% inhibition) | C (51-75% inhibition) | D (76-100% inhibition) | B (26-50% inhibition) | D (76-100% inhibition) | COc1c(O)nc(-c2ccccn2)nc1Oc1ccccc1 [drawing 813] |
| 26 to 50% | 26 to 50% | B (26-50% inhibition) | B (26-50% inhibition) | B (26-50% inhibition) | C (51-75% inhibition) | A (1-25% inhibition) | B (26-50% inhibition) | – | – | – | – | – | – | – | – | CO[C@H]1C[C@@H](Nc2nc(-c3ncc[nH]3)nc3sc(-c4ccn(C)n4)c(-c4ccccc4)c23)C1 [drawing 910] |
| – | – | – | – | – | – | – | – | 51 to 75% | 51 to 75% | C (51-75% inhibition) | D (76-100% inhibition) | C (51-75% inhibition) | C (51-75% inhibition) | B (26-50% inhibition) | C (51-75% inhibition) | Oc1nc(-c2ncc3n2CCCC3)nc2c(-c3ccccn3)csc12 [drawing 833] |
| – | – | – | – | – | – | – | – | 26 to 50% | 51 to 75% | B (26-50% inhibition) | C (51-75% inhibition) | C (51-75% inhibition) | C (51-75% inhibition) | B (26-50% inhibition) | C (51-75% inhibition) | Cn1ccnc1-c1nc(O)c(O)c(C(=O)NC2CCCC2)n1 [drawing 827] |
| – | – | – | – | – | – | – | – | 76 to 100% | 51 to 75% | D (76-100% inhibition) | C (51-75% inhibition) | D (76-100% inhibition) | B (26-50% inhibition) | D (76-100% inhibition) | B (26-50% inhibition) | COCCNc1nc(-c2nccn2C)nc2sc(-c3cccc(OC)c3)c(-c3ccc(OC)cc3)c12 [drawing 875] |
| – | – | – | – | – | – | – | – | 51 to 75% | 51 to 75% | D (76-100% inhibition) | B (26-50% inhibition) | D (76-100% inhibition) | B (26-50% inhibition) | D (76-100% inhibition) | C (51-75% inhibition) | COc1cccc(-c2sc3nc(-c4nccn4C)nc(N4CCC(OC)C4)c3c2-c2ccccc2)c1F.Cl (stereo not shown) [drawing 838] |
| – | – | – | – | – | – | – | – | 26 to 50% | 26 to 50% | C (51-75% inhibition) | B (26-50% inhibition) | C (51-75% inhibition) | B (26-50% inhibition) | B (26-50% inhibition) | 0 (0% inhibition) | COC1CCN(c2nc(-c3nccn3C)nc3sc(-c4ccn(C)n4)c(-c4ccccc4)c23)CC1 [drawing 856] |
| 76 to 100% | 51 to 75% | C (51-75% inhibition) | C (51-75% inhibition) | C (51-75% inhibition) | D (76-100% inhibition) | C (51-75% inhibition) | D (76-100% inhibition) | – | – | – | – | – | – | – | – | Cc1c(-c2ccn(C)n2)sc2nc(-c3nccn3C)nc(NCCCC(=O)N(C)C)c12 [drawing 917] |
| – | – | – | – | – | – | – | – | 51 to 75% | 76 to 100% | D (76-100% inhibition) | D (76-100% inhibition) | D (76-100% inhibition) | C (51-75% inhibition) | C (51-75% inhibition) | D (76-100% inhibition) | Oc1nc(-c2nccn2Cc2ccccn2)nc2c(-c3ccccn3)csc12 [drawing 851] |
| 51 to 75% | 26 to 50% | D (76-100% inhibition) | C (51-75% inhibition) | D (76-100% inhibition) | D (76-100% inhibition) | D (76-100% inhibition) | C (51-75% inhibition) | – | – | – | – | – | – | – | – | COc1cccc(-c2sc3nc(-c4nccn4C)nc(N[C@H]4C[C@@H](OC)C4)c3c2-c2ccccc2)c1F [drawing 891] |
| – | – | – | – | – | – | – | – | 1 to 25% | 51 to 75% | A (1-25% inhibition) | B (26-50% inhibition) | B (26-50% inhibition) | B (26-50% inhibition) | A (1-25% inhibition) | C (51-75% inhibition) | O=C(c1nc(-c2ccccn2)nc(O)c1O)N1CCCC1 [drawing 831] |
| 26 to 50% | 26 to 50% | D (76-100% inhibition) | B (26-50% inhibition) | D (76-100% inhibition) | C (51-75% inhibition) | D (76-100% inhibition) | B (26-50% inhibition) | – | – | – | – | – | – | – | – | COC1CCC(Nc2nc(-c3nccn3C)nc3sc(-c4cccc5[nH]ncc45)c(-c4ccccc4)c23)C1 (stereo not shown) [drawing 888] |
| – | – | – | – | – | – | – | – | 1 to 25% | 26 to 50% | B (26-50% inhibition) | A (1-25% inhibition) | B (26-50% inhibition) | B (26-50% inhibition) | A (1-25% inhibition) | A (1-25% inhibition) | Cn1ccc(-c2sc3nc(-c4nccn4C)nc(N4CCC5(CCOC5)C4)c3c2-c2ccccc2)n1 (stereo not shown) [drawing 857] |
| 26 to 50% | 26 to 50% | B (26-50% inhibition) | C (51-75% inhibition) | B (26-50% inhibition) | A (1-25% inhibition) | B (26-50% inhibition) | C (51-75% inhibition) | – | – | – | – | – | – | – | – | CCn1cc(Nc2nc(-c3ccccn3)nc(O)c2OC)cn1 [drawing 881] |
| 26 to 50% | 51 to 75% | A (1-25% inhibition) | B (26-50% inhibition) | B (26-50% inhibition) | B (26-50% inhibition) | A (1-25% inhibition) | B (26-50% inhibition) | – | – | – | – | – | – | – | – | COc1c(O)nc(-c2ccccn2)nc1Oc1ccc(C(=O)N(C)C)cc1 [drawing 879] |
| – | – | – | – | – | – | – | – | 51 to 75% | 51 to 75% | D (76-100% inhibition) | A (1-25% inhibition) | D (76-100% inhibition) | D (76-100% inhibition) | D (76-100% inhibition) | C (51-75% inhibition) | COC1CCN(c2nc(-c3nccn3C)nc3sc(-c4ccnc(N(C)C)c4)c(-c4ccccc4)c23)C1.Cl (stereo not shown) |
| – | – | – | – | – | – | – | – | 26 to 50% | 26 to 50% | B (26-50% inhibition) | C (51-75% inhibition) | B (26-50% inhibition) | B (26-50% inhibition) | A (1-25% inhibition) | B (26-50% inhibition) | CC(C)CN(C)C(=O)c1nc(-c2ccccn2)nc(O)c1O [drawing 798] |
| – | – | – | – | – | – | – | – | 1 to 25% | 26 to 50% | A (1-25% inhibition) | B (26-50% inhibition) | B (26-50% inhibition) | C (51-75% inhibition) | A (1-25% inhibition) | B (26-50% inhibition) | Cn1ccnc1-c1nc(O)c(O)c(C(=O)N2CCCC2)n1 [drawing 828] |
| – | – | – | – | – | – | – | – | 76 to 100% | 26 to 50% | D (76-100% inhibition) | B (26-50% inhibition) | D (76-100% inhibition) | B (26-50% inhibition) | D (76-100% inhibition) | B (26-50% inhibition) | COCCNc1nc(-c2nccn2C)nc2sc(-c3ccccc3Cl)c(-c3ccc(OC)cc3)c12 [drawing 876] |
